Results published in patent US10688077B2, “Inflammasome activation in myelodysplastic syndromes” (H. Lee Moffitt Cancer Center and Research Institute, Inc., priority 2015, dated 2020).

Columns and labels:
[1] = tested on: U2AF1 S34F mutant expressing TF-1 cells; assay: Nuclear β-catenin confocal microscopy in U2AF1-S34F mutant cells; type: cell-based; settings: treated 24 hours prior to staining
[2] = tested on: SF3B1-K700E mutant-expressing BM cells; assay: ASC staining to detect inflammasome formation by flow cytometry, SF3B1-K700E BM cells; type: cell-based, mice; settings: treated 24 hours
Procedure: Staining was carried out as described ([…], et al. J Immunol. 2015 194(1):455-62). Briefly, cell pellets were resuspended in 1 mL of prewarmed BD Permeabilization Buffer III, and incubated on ice for 30 minutes. Cells were washed 2× with staining buffer. Following washing, cells were stained with rabbit-anti-ASC primary antibodies at a 1:1500 dilution and incubated for 90 minutes. Cells were washed, stained with secondary antibodies at a dilution of 1:1500, and incubated for 45 minutes. Cells were washed, and sample acquisitions were carried out using a BD LSR II flow cytometer and FACSDiva software.

[3] = tested on: SF3B1-K700E mutant-expressing BM cells; assay: Nuclear β-catenin confocal microscopy, SF3B1-K700E BM cells; type: cell-based, mice; settings: treated 24 hours
Procedure: (§1) MDS and normal donor BM-MNC and mouse BM cells were stained with 30×FAM-FLICA® Caspase-1 solution at a ratio of 1:30 for 2 hours at 37° C. Cells were washed and cytospins were generated using a 5 minutes centrifugation at 450 rpm. Slides were fixed at 37° C. for 10 minutes using BD Cytofix Fixation Buffer (BD Biosciences), and subsequently washed using PBS. Cells were permeabilized with 0.1% Triton X-100/2% BSA in PBS for 15 minutes at room temperature. After washing with PBS, cells were blocked using 2% BSA in PBS for 30 minutes at room temperature, and washed again. Cells were incubated with the appropriate primary antibody overnight (1:400 for NLRP3, 1:20 for β-catenin) at 4° C. The next day, cells were washed with PBS and incubated with the appropriate secondary antibodies (1:500) for 1 hour at room temperature. After washing, cells were covered with ProLong Gold Antifade Reagent with DAPI prior to the addition of a coverslip (Life Technologies). Co-localization of a-caspase-1 with NLRP3 inflammasome complexes was assessed using a Leica TCS SP5 AOBS Laser Scanning Confocal microscope (Leica Microsystems). Analysis of the inflammasome images was performed with Definiens Developer 2.0 (Definiens AG). The software was used to segment cells based on brightness and size thresholds, followed by a watershed segmentation algorithm. […]

[4] = tested on: SF3B1-K700E-expressing mutant BM cells; assay: ROS detection by flow cytometry, SF3B1-K700E BM cells; type: cell-based, mice
Source text: (§2) ROS were detected using CM-H2DCFDA and CellROX® Deep Red Reagent according to manufacturer's protocol (Life Technologies).

normal BM-MNC [5] = assay: a-caspase-1/NLRP3 confocal microscopy in normal BM-MNC treated with rhS100A9; type: cell-based, human; settings: 5 pig/mL rhS100A9, 24 hours
Procedure: (§3) MDS and normal donor BM-MNC and mouse BM cells were stained with 30×FAM-FLICA® Caspase-1 solution at a ratio of 1:30 for 2 hours at 37° C. Cells were washed and cytospins were generated using a 5 minutes centrifugation at 450 rpm. Slides were fixed at 37° C. for 10 minutes using BD Cytofix Fixation Buffer (BD Biosciences), and subsequently washed using PBS. Cells were permeabilized with 0.1% Triton X-100/2% BSA in PBS for 15 minutes at room temperature. After washing with PBS, cells were blocked using 2% BSA in PBS for 30 minutes at room temperature, and washed again. Cells were incubated with the appropriate primary antibody overnight (1:400 for NLRP3, 1:20 for β-catenin) at 4° C. The next day, cells were washed with PBS and incubated with the appropriate secondary antibodies (1:500) for 1 hour at room temperature. After washing, cells were covered with ProLong Gold Antifade Reagent with DAPI prior to the addition of a coverslip (Life Technologies). Co-localization of a-caspase-1 with NLRP3 inflammasome complexes was assessed using a Leica TCS SP5 AOBS Laser Scanning Confocal microscope (Leica Microsystems). Analysis of the inflammasome images was performed with Definiens Developer 2.0 (Definiens AG). The software was used to segment cells based on brightness and size thresholds, followed by a watershed segmentation algorithm. Intensity values and Pearson's correlation coefficient were extracted from the segmented cells. For β-catenin image analysis, confocal images were imported into Definiens Tissue Studio v3.0, 64 Dual in .tif format. Cells were separated from background using the RGB thresholds. Nuclei were identified by setting thresholds in the DAPI channel. Typical cells averaged 60 microns. The red intensity (β-catenin) in the nucleus and cytoplasm was established by setting thresholds to low, medium and high in the red channel on a scale of 0-255 in the red channel.

U937 cells [6] = assay: S100A9 flow cytometry experiments in U937 cells (a-caspase-1/annexin-V); type: cell-based
Procedure: Monocytic U937 cells were treated with the indicated concentrations of rhS100A9 for 24 hours, or with 5 μg/mL rhS100A9 for the indicated time points. Subsequently, cells were stained with 30×FAM-FLICA® Caspase-1 solution at a ratio of 1:30 for 2 hours at 37° C. Cells were washed, resuspended in 1× binding buffer, and stained with Annexin-V:PE at a dilution of 1:30 for 15 minutes at room temperature. 1× binding buffer was added to a final volume of 350 μL. Sample acquisitions were carried out using a BD FACSCalibur flow cytometer (BD Biosciences). Data were analyzed using FlowJo 9.7.5 software.

U937 cells [7] = assay: Comet assay (DNA damage) in U937 cells; type: cell-based; settings: 5 μg/mL, 24 hours, compared to untreated cells
Procedure: Monocytic U937 cells were treated with 5 μg/mL rhS100A9 for 24 hr.
DNA damage was measured by single cell gel electrophoresis using alkaline CometAssay® according to manufacturer's protocol (Trevigen Inc.).

normal BM-MNC [8] = assay: Nuclear β-catenin confocal microscopy in normal BM-MNC; type: cell-based, human
Procedure: as §1

U937 cells [9] = assay: Pore formation, ethidium bromide uptake in U937 cells; type: cell-based; settings: 5 μg/mL rhS100A9, 12.5 μg/mL ethidium bromide
U937 cells [10] = assay: NLRP3 inflammasome confocal microscopy in U937 cells; type: cell-based; settings: 5 μg/mL, 24 hours
normal BM-MNC [11] = assay: qPCR of pyroptosis-associated genes in normal BM-MNC treated with rhS100A9; type: cell-based, human; settings: 1 μg/mL, 24 hours, n=2
Procedure: PCR RNA was isolated from BM-MNC using the RNeasy Mini Kit (Qiagen). cDNA was produced using the iScript cDNA Synthesis Kit (Bio-Rad). Sequences for primers can be found in Table 1. GAPDH mRNA was used for transcript normalization. cDNA was amplified using the iQ SYBR Green Supermix and the CFX96 Real-Time PCR Detection System (Bio-Rad). PCR conditions were as follows: 10 minutes at 95° C., followed by 40 cycles of amplification (15 seconds at 95° C. and 1 minute at 60° C.). Relative gene expression was calculated using the […] method.

U937 cells [12] = assay: ROS detection by flow cytometry in U937 cells; type: cell-based; settings: 5 μg/mL, 24 hours, compared to untreated cells
Source text: as §2

U937 cells [13] = assay: Nuclear β-catenin confocal microscopy in U937 cells; type: cell-based; settings: 5 μg/mL, 24 hours, compared to untreated cells
[14] = tested on: BM cells isolated from WT mice; assay: a-caspase-1/NLRP3 confocal microscopy in WT mouse BM cells treated with rhS100A9; type: cell-based; settings: 5 μg/mL, 24 hours
Procedure: as §3

In the case of `c1ccc2c(c1)[I+]c1ccccc1-2` [DPI], the “β-catenin activation (nuclear β-catenin)” value [1] is reported as “effectively reduced β-catenin activation”, the “inflammasome formation (ASC oligomerization)” value [2] is reported as “significantly reduced” and the “percentage of cells with elevated levels of nuclear β-catenin” value [3] is reported as “significantly reduced”. For the same molecule, the “ROS MFI” value [4] was “extinguished below the level of WT controls” and the “mean percentage of ROS+ cells” value [4] was “extinguished below the level of WT controls”.
With “rhS100A9: recombinant human S100A9, DAMP/alarmin protein, TLR4 and CD33 ligand” the a-caspase-1 levels induced (normal BM-MNC [5]) was 2.5 fold, the “formation of NLRP3 inflammasomes induced” value (normal BM-MNC [5]) was 2.9 fold and the NLRP3 levels induced (normal BM-MNC [5]; p=0.064) was 47.1 fold. The “activation of caspase-1” value (U937 cells [6]; 5 μg/mL, over time) was “time-dependent increase”, the “fraction of pyroptotic cells” value (U937 cells [6]; increasing concentrations, 24 hours) was “concentration-dependent increase” and the “increase in DNA damage” value (U937 cells [7]) was 4.1 fold. For the same molecule, the “levels of nuclear β-catenin” value (normal BM-MNC [8]; 5 μg/mL, 24 hours, compared to controls) was “elevated levels”, the “uptake of ethidium bromide” value (U937 cells [9]) was “rapid and substantial uptake” and the “levels of NLRP3 inflammasome complexes” value (U937 cells [10]) was “markedly increased”. The “expression of pyroptosis-associated genes” value (normal BM-MNC [11]) was “significantly up-regulated”, the “increase in the mean percentage of ROS-positive cells” value (U937 cells [12]) was 2.9 fold and the “levels of nuclear (activated) β-catenin” value (U937 cells [13]) was “marked increases”. For the same molecule, the inflammasome complexes ([14]; p=0.023) was “marked induction”, the “MFI of NLRP3” value ([14]; versus controls, p=0.017) was “significantly increased” and the “MFI of a-caspase-1” value ([14]; versus controls, p=7.5×10^−3) was “significantly increased”.
For `CC(=O)N[C@@H](CS)C(=O)O` [NAC, N-acetylcysteine], the “β-catenin activation (nuclear β-catenin)” value [1] was “effectively reduced β-catenin activation”, the “inflammasome formation (ASC oligomerization)” value [2] was “significantly reduced” and the “percentage of cells with elevated levels of nuclear β-catenin” value [3] was “significantly reduced”. For the same molecule, the “S100A9-triggered nuclear translocation of β-catenin” value (normal BM-MNC [8]; S100A9 treated normal BM-MNC) was “abolished”, the “ROS MFI” value [4] was “extinguished below the level of WT controls” and the “mean percentage of ROS+ cells” value [4] was “extinguished below the level of WT controls”.
